From article PMC8624998, “Synthesis and Antiproliferative Evaluation of 3-Chloroazetidin-2-ones with Antimitotic Activity: Heterocyclic Bridged Analogues of Combretastatin A-4” (Pharmaceuticals, 2021)
Read-outs that look alike come from different tables or passages of the source.

Columns and labels:
[1] = system: NCI-H332M; experiment: NCI-60 5 dose screen, NSC Lung Cancer; type: cell-based; settings: Homo sapiens
[2] = system: ACHN; experiment: NCI-60 5 dose screen, Renal Cancer; type: cell-based; settings: Homo sapiens
[3] = system: CAKI-1; experiment: NCI-60 5 dose screen, Renal Cancer; type: cell-based; settings: Homo sapiens
[4] = system: colchicine binding site of β-tubulin; experiment: Colchicine binding-site (EBI) assay; type: cell-based, human; settings: MCF-7, 10 μM for 2 h, then EBI 100 μM
Protocol: A colchicine-site binding assay was performed to evaluate the interaction of compound 10n at the colchicine binding site of tubulin using N,N-ethylenebis(iodoacetamide) (EBI). EBI crosslinks the Cys-239 and Cys-354 residues of the colchicine binding site of β-tubulin, alkylating the sulfhydryl group of cysteine. […] Microtubule targeting compounds binding at the colchicine site, e.g., colchicine and CA-4, prevent the formation of the β-tubulin-EBI adduct. […] Control samples (ethanol 0.1% (v/v)) indicated the formation of the β-tubulin-EBI adduct at a slightly lower position (Figure 9). […] These tubulin polymerisation inhibitors act on the colchicine site of tubulin and compete with EBI to bind the colchicine binding site and hinder the cross-linking of EBI with β-tubulin.
The assay was performed as we have previously reported. N,N′-Ethylene-bis(iodoacetamide) (EBI) (Santa Cruz Biotechnology) was dissolved in ethanol (100 μM). MCF-7 cells were seeded at a density of 5 × 10^4 cells/well in 6-well plates and incubated overnight. […]
Figure 9 Effects of compound 10n on the inhibition of the bisthioalkylation of Cys239 and Cys354 of β-tubulin by N,N′-ethylene-bis(iodoacetamide) (EBI) in MCF-7 cells. […] Cells were harvested, lysed and analysed using […] and Western blotting for β-tubulin and β-tubulin-EBI adducts. […]

[5] = system: microtubule network of MCF-7 cells; experiment: Immunofluorescence (confocal) of microtubule network; type: cell-based, human; settings: MCF-7, 16 h; 10n 0.05, 0.1, 0.5 μM; CA-4 10 nM; paclitaxel 1 μM
Protocol: Subsequently, the effect of the representative compound 10n on the organisation of microtubule cytoskeleton of MCF-7 cells was also determined by confocal microscopy using an anti-tubulin antibody (Figure 8). […] The MCF-7 cell nuclei (stained blue) were also clearly observed (Figure 8A). […] The treatment of MCF-7 breast cancer cells with CA-4 tubulin-targeting agents has been reported to result in the formation of multiple micronuclei and mitotic catastrophes.
Confocal microscopy was used to study the effects on MCF-7 cytoskeleton following treatment with compound 10n following the protocols previously reported. For each experiment, all images were collected on the same day using identical parameters. MCF-7 cells were seeded (1 × 10^5 cells/mL) on eight chamber glass slides. Cells were either untreated or treated with vehicle (1% ethanol (v/v)), CA-4 (10 nM), Paclitaxel (1 μM) and β-lactam compound 10n at 50 nM, 100 nM and 500 nM concentrations for 16 h. The cells were then gently washed in PBS and then fixed for 30 min with 100% ice-cold MeOH. Cells were washed three times in PBS for 10 min and then permeabilised in 0.5% Triton X-100. The cells were subsequently washed in PBS containing 0.1% Tween (PBST), and then blocked in bovine serum albumin (5%) diluted in PBST. Cells were then incubated with a mouse monoclonal anti-α-tubulin−FITC antibody (clone DM1A) (1:200) for 2 h at 20 °C. Following washes in PBST, cells were incubated with Alexa Fluor 488 dye (1:500) for 1 h at 20 °C. Following further washes in PBST, the cells were mounted in Ultra Cruz Mounting Media, which contained 4,6-diamino-2-phenolindol dihydrochloride (DAPI). The images were photographed using Leica SP8 confocal microscopy with the Leica application suite X software program. Experiments were performed on three independent occasions.
Figure 8 Compound 10n depolymerises the microtubule network of MCF-7 breast cancer cells. Cells were treated with (A) vehicle control ([…]), (B) CA-4 (10 nM), (C) paclitaxel (1 μM) and compound 10n, (D) (50 nM), (E) (100 nM) and (F) (500 nM) for 16 h. […]

[6] = system: MCF-7 cells; experiment: Annexin V/PI apoptotic assay; settings: for total apoptotic cells (Annexin V-stained positive cells): 48 h
Protocol: The Annexin V/Propidium Iodide (PI) assay was used to detect both early- and late-stage apoptosis using flow cytometry, as previously reported [34]. Early apoptosis is detected by the presence of phosphatidylserine (PS) on the outer surface of the cell membrane. […] Cells were then analysed using flow cytometry. […] Cells were washed in binding buffer and then re-suspended in PI-containing binding buffer (1:1000). Samples were analysed without delay using the BD Accuri flow cytometer and the data analysed with GraphPad Prism software.
MCF-7 breast cancer cells were treated with 10n (50 and 500 nM) or CA-4 (50 nM) or control vehicle (0.1% ethanol (v/v)). The percentage of apoptotic cells was determined by staining with Annexin V-FITC and propidium iodide (PI). […] Values represent the mean of three independent experiments.

[7] = system: CCRF-CEM; experiment: NCI-60 5 dose screen, leukaemia; type: cell-based; settings: Homo sapiens
[8] = system: OVCAR-8; experiment: NCI-60 5 dose screen, Ovarian Cancer; type: cell-based; settings: Homo sapiens
[9] = Homo sapiens, MCF7, 48 h, read-out: Viable

SMILES	GI50 [1] [nM]	β-tubulin-EBI adduct formation [4]	effect on microtubule network [5]	total apoptotic cells (Annexin V-stained positive cells) ([6]; 50 nM) [%]	viability at 0.05 µM [6, 9] [%]	also measured
COc1ccc([C@H]2[C@H](Cl)C(=O)N2c2cc(OC)c(OC)c(OC)c2)cc1 (relative stereo) [Compound 10e trans, Trans-3-chloro-1-(3,4,5-trimethoxyphenyl)-4-(4-methoxyphenyl) azetidin-2-one]	962					GI50 ([2]; read-out: GI50): 97.1 nM; GI50 ([3]; read-out: GI50): 122 nM
COc1ccc(/C=C\c2cc(OC)c(OC)c(OC)c2)cc1O [CA-4, Combretastatin A-4]		Tubulin EBI adduct formation was inhibited	extensive depolymerisation of tubulin	34.6	61.8	
COc1ccc(C2C(Cl)C(=O)N2c2cc(OC)c(OC)c(OC)c2)cc1O (stereo not drawn) [Compound 10n, 3-Chloro-4-(3-hydroxy-4-methoxy-phenyl)-1-(3,4,5-trimethoxyphenyl)azetidin-2-one]		Tubulin EBI adduct formation was inhibited	disorganised microtubule network	29.8	66.9	total apoptotic cells (Annexin V-stained positive cells) ([6]; 500 nM): 37%; viability at 0.5 µM [6, 9]: 58.5%
COc1ccc(C2N(c3cc(OC)c(OC)c(OC)c3)C(=O)C2(Cl)Cl)cc1O (stereo not drawn) [Compound 11n, 3,3-Dichloro-4-(3-hydroxy-4-methoxyphenyl)-1-(3,4,5-trimethoxyphenyl)azetidin-2-one]						GI50 [2]: 51.1 nM; GI50 [3]: 126 nM
CCSc1ccc(C2C(Br)C(=O)N2c2cc(OC)c(OC)c(OC)c2)cc1 (stereo not drawn) [Compound 16d, 3-Bromo-4-(4-(ethylthio)phenyl)-1-(3,4,5-trimethoxyphenyl)azetidin-2-one]	7370					GI50 [7]: 278 nM; GI50 [8]: 403 nM
